Measured values: PubChem BioAssay (NCI)
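Interpolation was linear, between the two tested concentrations surrounding the appropriate level; five concentrations were tested over 48 hours in 96-well plates. GI50 marks 50% less growth. Definition used: TGI = concentration required for complete inhibition of growth.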

Columns and labels:
Assay in all cases: NCI tumour cell line growth inhibition, 48 h
[1] = test system: PC-3 prostate
[2] = test system: RXF 393 renal
[3] = test system: HT29 colon
[4] = test system: K-562 leukemia
[5] = test system: COLO 205 colon
[6] = test system: HCT-116 colon
[7] = test system: UO-31 renal
[8] = test system: CCRF-CEM leukemia
[9] = test system: ACHN renal
[10] = test system: HCC-2998 colon
[11] = test system: EKVX NSCLC
[12] = test system: SNB-75 CNS
[13] = test system: CAKI-1 renal
[14] = test system: TK-10 renal
[15] = test system: 786-0 renal
[16] = test system: MDA-MB-231 breast
[17] = test system: HOP-62 NSCLC
[18] = test system: LOX IMVI melanoma
[19] = test system: SF-295 CNS
[20] = test system: OVCAR-3 ovarian
[21] = test system: HS 578T breast
[22] = test system: A498 renal
[23] = test system: SK-MEL-2 melanoma
[24] = test system: SF-539 CNS
[25] = test system: IGROV1 ovarian
[26] = test system: UACC-62 melanoma
[27] = test system: NCI-H226 lung
[28] = test system: NCI/ADR-RES ovarian
[29] = test system: KM12 colon

## COC(=O)c1oc2c(C(=O)/C=C/c3ccc(OC)cc3)c(OCCN3CCOCC3)ccc2c1C
[1]
  GI50: 1840 nM
  TGI: 6880 nM
[2]
  GI50: 48.7 nM
  TGI: 493 nM
[3]
  GI50: 1940 nM
  TGI: 4480 nM
[4]
  GI50: 1440 nM
  TGI: 4820 nM
[5]
  GI50: 1580 nM
  TGI: 3120 nM
[6]
  GI50: 1600 nM
  TGI: 4550 nM
[7]
  GI50: 1890 nM
  TGI: 5250 nM
[8]
  GI50: 395 nM
  TGI: 2530 nM
[9]
  GI50: 1730 nM
  TGI: 3620 nM
[10]
  GI50: 1640 nM
  TGI: 3170 nM
[11]
  GI50: 1870 nM
  TGI: 7490 nM
[12]
  GI50: 1830 nM
  TGI: 6770 nM
[13]
  GI50: 1740 nM
  TGI: 4940 nM
[14]
  GI50: 3310 nM
  TGI: 11900 nM
[15]
  GI50: 1770 nM
  TGI: 4100 nM
[16]
  GI50: 1640 nM
  TGI: 5180 nM
[17]
  GI50: 2440 nM
  TGI: 6880 nM
[18]
  GI50: 1400 nM
  TGI: 2790 nM
[19]
  GI50: 1850 nM
  TGI: 5200 nM
[20]
  GI50: 1890 nM
  TGI: 5690 nM
[21]
  GI50: 1740 nM
  TGI: 5840 nM
[22]
  GI50: 2040 nM
  TGI: 4690 nM
[23]
  GI50: 1320 nM
  TGI: 3150 nM
[24]
  GI50: 1640 nM
  TGI: 4100 nM
[25]
  GI50: 1850 nM
  TGI: 4550 nM
[26]
  GI50: 1550 nM
  TGI: 3190 nM
[27]
  GI50: 1590 nM
  TGI: 3510 nM
[28]
  GI50: 2480 nM
  TGI: > 24000 nM
[29]
  GI50: 1770 nM
  TGI: 3780 nM
